Species: Rattus norvegicus
Assay: DrugMatrix - Regimen: Daily Repeat
Type: toxicity, organism-based, Sprague-Dawley
Set-up: regimen Daily Repeat, gender Male, age 6-8 weeks
Conditions: in vivo, po, route oral GAVAGE, vehicle 100 % WATER; for ABSOLUTE BASOPHIL / ABSOLUTE EOSINOPHIL / ABSOLUTE LYMPHOCYTE / ABSOLUTE MONOCYTE / ABSOLUTE SEGMENTED NEUTROPHIL / BASOPHIL / EOSINOPHIL / ERYTHROCYTE COUNT / HEMATOCRIT / HEMOGLOBIN / LEUKOCYTE COUNT / LYMPHOCYTE / MEAN CORPUSCULAR HEMOGLOBIN / MEAN CORPUSCULAR HEMOGLOBIN CONCENTRATION / MONOCYTE / NEUTROPHIL / NUCLEATED RED BLOOD CELLS / PLATELET COUNT: tissue Blood; for ALANINE AMINOTRANSFERASE / ALBUMIN / ALKALINE PHOSPHATASE / BLOOD UREA NITROGEN / CARBON DIOXIDE / CHLORIDE / CHOLESTEROL / CREATINE PHOSPHOKINASE / CREATININE / GLUCOSE / LACTATE DEHYDROGENASE / LIPASE / PHOSPHORUS / POTASSIUM / SODIUM / TOTAL BILIRUBIN / TOTAL PROTEIN / URIC ACID: tissue Plasma
[1] = 15 mg/kg, 120 h, dose level Low, time 5 day
[2] = 150 mg/kg, 72 h, dose level High, time 3 day
[3] = 150 mg/kg, 120 h, dose level High, time 5 day

Cc1ccc(NC(=O)c2ccc(CN3CCN(C)CC3)cc2)cc1Nc1nccc(-c2cccnc2)n1 [IMATINIB]
ABSOLUTE BASOPHIL [1]: 0 CELLS/uL
ABSOLUTE EOSINOPHIL [1]: 72.33 CELLS/uL
ABSOLUTE LYMPHOCYTE [1]: 6282 CELLS/uL
ABSOLUTE MONOCYTE [1]: 25.33 CELLS/uL
ABSOLUTE SEGMENTED NEUTROPHIL [1]: 653.67 CELLS/uL
BASOPHIL [1]: 0%
EOSINOPHIL [1]: 1%
ERYTHROCYTE COUNT [1]: 5.21 x10E6/uL
HEMATOCRIT [1]: 33.07%
HEMOGLOBIN [1]: 12.73 G/DL
LEUKOCYTE COUNT [1]: 7.03 x10E3/uL
LYMPHOCYTE [1]: 89.67%
MEAN CORPUSCULAR HEMOGLOBIN [1]: 24.43 pg
MEAN CORPUSCULAR HEMOGLOBIN CONCENTRATION [1]: 38.53 G/DL
MONOCYTE [1]: 0.33%
NEUTROPHIL [1]: 9%
NUCLEATED RED BLOOD CELLS [1]: 0 /100WBC
PLATELET COUNT [1]: 1004.67 x10E3/uL
ALANINE AMINOTRANSFERASE [1]: 55.67 u/L
ALBUMIN [1]: 4.2 G/DL
ALKALINE PHOSPHATASE [1]: 357.67 u/L
BLOOD UREA NITROGEN [1]: 14.67 mg/dL
CARBON DIOXIDE [1]: 28 mmol/L
CHLORIDE [1]: 100.33 MEQ/L
CHOLESTEROL [1]: 60 mg/dL
CREATINE PHOSPHOKINASE [1]: 404.33 u/L
CREATININE [1]: 0.17 mg/dL
GLUCOSE [1]: 140.33 mg/dL
LACTATE DEHYDROGENASE [1]: 183.67 u/L
LIPASE [1]: 8 u/L
PHOSPHORUS [1]: 11.1 mg/dL
POTASSIUM [1]: 5.69 MEQ/L
SODIUM [1]: 145.7 MEQ/L
TOTAL BILIRUBIN [1]: 0.3 mg/dL
TOTAL PROTEIN [1]: 6 G/DL
URIC ACID [1]: 0.73 mg/dL
ABSOLUTE BASOPHIL [2]: 0 CELLS/uL
ABSOLUTE EOSINOPHIL [2]: 64 CELLS/uL
ABSOLUTE LYMPHOCYTE [2]: 9025.33 CELLS/uL
ABSOLUTE MONOCYTE [2]: 0 CELLS/uL
ABSOLUTE SEGMENTED NEUTROPHIL [2]: 844 CELLS/uL
BASOPHIL [2]: 0%
EOSINOPHIL [2]: 0.67%
ERYTHROCYTE COUNT [2]: 5.45 x10E6/uL
HEMATOCRIT [2]: 34.93%
HEMOGLOBIN [2]: 13 G/DL
LEUKOCYTE COUNT [2]: 9.93 x10E3/uL
LYMPHOCYTE [2]: 90.33%
MEAN CORPUSCULAR HEMOGLOBIN [2]: 23.83 pg
MEAN CORPUSCULAR HEMOGLOBIN CONCENTRATION [2]: 37.2 G/DL
MONOCYTE [2]: 0%
NEUTROPHIL [2]: 9%
NUCLEATED RED BLOOD CELLS [2]: 0 /100WBC
PLATELET COUNT [2]: 1243.33 x10E3/uL
ALANINE AMINOTRANSFERASE [2]: 86 u/L
ALBUMIN [2]: 4.3 G/DL
ALKALINE PHOSPHATASE [2]: 449.67 u/L
BLOOD UREA NITROGEN [2]: 14.67 mg/dL
CARBON DIOXIDE [2]: 26.33 mmol/L
CHLORIDE [2]: 105.33 MEQ/L
CHOLESTEROL [2]: 61.33 mg/dL
CREATINE PHOSPHOKINASE [2]: 205.67 u/L
CREATININE [2]: 0.17 mg/dL
GLUCOSE [2]: 154 mg/dL
LACTATE DEHYDROGENASE [2]: 135.33 u/L
LIPASE [2]: 9 u/L
PHOSPHORUS [2]: 11 mg/dL
POTASSIUM [2]: 5.83 MEQ/L
SODIUM [2]: 145.03 MEQ/L
TOTAL BILIRUBIN [2]: 0.23 mg/dL
TOTAL PROTEIN [2]: 5.97 G/DL
URIC ACID [2]: 1.3 mg/dL
ABSOLUTE BASOPHIL [3]: 0 CELLS/uL
ABSOLUTE EOSINOPHIL [3]: 37 CELLS/uL
ABSOLUTE LYMPHOCYTE [3]: 11284 CELLS/uL
ABSOLUTE MONOCYTE [3]: 0 CELLS/uL
ABSOLUTE SEGMENTED NEUTROPHIL [3]: 1012.33 CELLS/uL
BASOPHIL [3]: 0%
EOSINOPHIL [3]: 0.33%
ERYTHROCYTE COUNT [3]: 5.01 x10E6/uL
HEMATOCRIT [3]: 32.5%
HEMOGLOBIN [3]: 12.27 G/DL
LEUKOCYTE COUNT [3]: 12.33 x10E3/uL
LYMPHOCYTE [3]: 91.33%
MEAN CORPUSCULAR HEMOGLOBIN [3]: 24.53 pg
MEAN CORPUSCULAR HEMOGLOBIN CONCENTRATION [3]: 37.73 G/DL
MONOCYTE [3]: 0%
NEUTROPHIL [3]: 8.33%
NUCLEATED RED BLOOD CELLS [3]: 0 /100WBC
PLATELET COUNT [3]: 1206.67 x10E3/uL
ALANINE AMINOTRANSFERASE [3]: 77.33 u/L
ALBUMIN [3]: 4.37 G/DL
ALKALINE PHOSPHATASE [3]: 359.33 u/L
BLOOD UREA NITROGEN [3]: 17.33 mg/dL
CARBON DIOXIDE [3]: 27.33 mmol/L
CHLORIDE [3]: 100 MEQ/L
CHOLESTEROL [3]: 49.67 mg/dL
CREATINE PHOSPHOKINASE [3]: 251 u/L
CREATININE [3]: 0.21 mg/dL
GLUCOSE [3]: 162 mg/dL
LACTATE DEHYDROGENASE [3]: 163.67 u/L
LIPASE [3]: 9 u/L
PHOSPHORUS [3]: 10.77 mg/dL
POTASSIUM [3]: 5.96 MEQ/L
SODIUM [3]: 141.83 MEQ/L
TOTAL BILIRUBIN [3]: 0.2 mg/dL
TOTAL PROTEIN [3]: 5.9 G/DL
URIC ACID [3]: 1.47 mg/dL
